Some test systems named below: SR; UACC-62; OVCAR-4; IGROV-1; KM12; NCI-H226; LOX IMVI; T47D; SK-MEL-5; HT-29; PC-3; SW-620; MCF7; 786-0; MDA-MB-231; MDA-N; SNB-19; A549; NCI-H460; Hs-578T.
Test in all cases: inhibition of tumour cell growth, NCI panel, 48 h

Results on 11 molecules are retold here after ChEMBL document CHEMBL1201862, “PubChem BioAssay data set” (2004).

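A five-concentration, 48-hour dose response in 96-well plates underlies each endpoint, interpolated linearly between surrounding concentrations. The concentration for 50% growth inhibition is given as GI50.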 Activity calls are given as the source filed them. No stated cut-off is given here; in the data, active = GI50 up to about 1.1 µM and inactive = higher.

For `CC(C)(C)N(Cc1ccc2c(c1)OCO2)C(=O)/C=C\Sc1ccccc1`, the GI50 in the test on SR was 4.44 µM (inactive); in the test with UACC-62 it was > 100 µM (inactive); in the test with OVCAR-4, 77.8 µM (inactive); in the test with IGROV-1 it was 83.2 µM (inactive); with KM12, 81.8 µM (inactive); with NCI-H226, 68.2 µM (inactive). For the same molecule, the GI50 in the test with LOX IMVI was 77.8 µM (inactive); with T47D, 21.4 µM (inactive); with SK-MEL-5, 53.2 µM (inactive); with HT-29, 28.8 µM (inactive); with PC-3, 38.1 µM (inactive); in the test on SW-620, 99.8 µM (inactive). Besides, the GI50 was 51.8 µM (inactive) in the test with MCF7; > 100 µM (inactive) with 786-0; > 100 µM (inactive) with MDA-MB-231; 19.5 µM (inactive) in the test on MDA-N; > 100 µM (inactive) in the test on SNB-19; 47 µM (inactive) in the test on A549.

With `Cn1c(=O)c2c(nc3sc4ncccc4c(=O)n32)n(C)c1=O`, the GI50 in the test with UACC-62, with OVCAR-4, with IGROV-1, in the test with KM12, with NCI-H226 and with LOX IMVI was > 100 µM (inactive) in each case. Besides, the GI50 with T47D, in the test on SK-MEL-5, with HT-29, in the test on PC-3, in the test with SW-620 and with MCF7 was > 100 µM (inactive) in each case. In addition, the GI50 in the test on NCI-H460, with 786-0, in the test on MDA-MB-231, with MDA-N, with SNB-19 and in the test on Hs-578T was > 100 µM (inactive) in each case.

Regarding `CC(C)(C)OC(=O)N/N=C(/N)c1ccccc1`, the GI50 with UACC-62, with OVCAR-4, in the test on IGROV-1, in the test with KM12, in the test with NCI-H226 and in the test with LOX IMVI was > 100 µM (inactive) in each case. The GI50 with T47D, in the test on SK-MEL-5, in the test on HT-29, in the test with PC-3, with MCF7 and with NCI-H460 was > 100 µM (inactive) each time. Besides, the GI50 in the test on 786-0, in the test with MDA-MB-231, in the test with MDA-N, with SNB-19 and in the test on A549 was > 100 µM (inactive) in each case.

Regarding `O=C1c2cc(Br)ccc2-c2ccc3c4ccc5c6c(ccc(c7ccc1c2c73)c64)C(=O)c1cc(Br)ccc1-5`, the GI50 in the test on SR is 2.28 µM (inactive); in the test on UACC-62 it was > 100 µM (inactive); in the test with IGROV-1, > 100 µM (inactive); in the test on KM12, > 100 µM (inactive); with NCI-H226, > 100 µM (inactive); in the test on LOX IMVI, > 100 µM (inactive). The GI50 in the test with T47D, with SK-MEL-5, in the test on HT-29, with PC-3, in the test on SW-620 and in the test with MCF7 was > 100 µM (inactive) in each case. Also, the GI50 in the test with NCI-H460, with 786-0, in the test on MDA-MB-231, in the test with SNB-19, in the test on Hs-578T and in the test on A549 was > 100 µM (inactive) throughout.

Consider `O=C(/N=N/c1cccc(Cl)c1)NNc1cccc(Cl)c1`, for which the GI50 in the test with SR was 13.8 µM (inactive); in the test on UACC-62 it was 9.25 µM (inactive); in the test with OVCAR-4, 10.3 µM (inactive); in the test on IGROV-1, 17.5 µM (inactive); with NCI-H226 it was 23.9 µM (inactive); in the test on LOX IMVI it was 12.9 µM (inactive). Also, the GI50 in the test on T47D was 10.8 µM (inactive); in the test on SK-MEL-5, 17.9 µM (inactive); in the test with HT-29, 22.9 µM (inactive); with PC-3, 8.97 µM (inactive); with SW-620, 16.2 µM (inactive); in the test with NCI-H460, 15.5 µM (inactive). Also, the GI50 was 15.1 µM (inactive) in the test with 786-0; 23.2 µM (inactive) with MDA-MB-231; 13.1 µM (inactive) with MDA-N; 20.8 µM (inactive) in the test with SNB-19; 24.5 µM (inactive) with A549.

For `C(=C\N1CCCCC1)/c1nnnn1-c1ccccc1`, the GI50 was 23.4 µM (inactive) with SR; 15.6 µM (inactive) in the test on UACC-62; 33.4 µM (inactive) in the test with OVCAR-4; 27.7 µM (inactive) with IGROV-1; 56.8 µM (inactive) in the test with KM12; 37.2 µM (inactive) with NCI-H226. Also, the GI50 was 17.6 µM (inactive) with LOX IMVI; 13.5 µM (inactive) in the test on T47D; 23.3 µM (inactive) in the test on SK-MEL-5; 84.5 µM (inactive) in the test on HT-29; 27.7 µM (inactive) in the test with PC-3; 34.8 µM (inactive) in the test with SW-620. In addition, the GI50 with NCI-H460 is 73.8 µM (inactive); in the test on 786-0, 43.8 µM (inactive); with MDA-MB-231, 20.8 µM (inactive); in the test with MDA-N, 32.3 µM (inactive); in the test with SNB-19, 32.6 µM (inactive); in the test with Hs-578T, 17 µM (inactive). The GI50 in the test on A549 was > 100 µM (inactive).

In the case of `CC(C)(C)[Si](C)(C)Oc1ccc(C2CNC(=O)C23CCC(=O)N3Cc2ccccc2)cc1` (stereo not given), the GI50 in the test on SR is 7.96 µM (inactive); with UACC-62 it was 15.2 µM (inactive); in the test with OVCAR-4, 13.7 µM (inactive); in the test with IGROV-1, 15.3 µM (inactive); in the test with KM12, 15.8 µM (inactive); in the test with NCI-H226 it was 18.9 µM (inactive). Also, the GI50 with LOX IMVI is 16.1 µM (inactive); in the test on T47D, 15.9 µM (inactive); in the test with SK-MEL-5, 5.71 µM (inactive); with HT-29, 12.2 µM (inactive); with PC-3, 15.2 µM (inactive); in the test on SW-620, 15.1 µM (inactive). For the same molecule, the GI50 was 4.54 µM (inactive) with MCF7; 7.14 µM (inactive) in the test with NCI-H460; 18.9 µM (inactive) in the test with 786-0; 13.3 µM (inactive) in the test on MDA-N; 15 µM (inactive) in the test with SNB-19; 7.31 µM (inactive) with Hs-578T. For the same molecule, the GI50 with A549 is 10 µM (inactive).

With `NCC(=O)NC1(c2cc3ccccc3s2)CCCCC1`, the GI50 in the test on SR was < 0.01 µM (active); with UACC-62, 19.7 µM (inactive); in the test with OVCAR-4, 50.8 µM (inactive); in the test on IGROV-1, 61.1 µM (inactive); in the test on KM12 it was 40.6 µM (inactive); in the test on NCI-H226, 18.7 µM (inactive). The GI50 in the test on LOX IMVI was 51.1 µM (inactive); in the test on T47D, 40 µM (inactive); in the test on SK-MEL-5, 17.8 µM (inactive); with HT-29, 18.6 µM (inactive); with SW-620, 91 µM (inactive); in the test with MCF7, 27.2 µM (inactive). Also, the GI50 with NCI-H460 is 33.5 µM (inactive); in the test with 786-0 it was 41.4 µM (inactive); with MDA-N it was 38.8 µM (inactive); with SNB-19, > 100 µM (inactive); in the test with Hs-578T, 27.7 µM (inactive); in the test with A549 it was 74.1 µM (inactive).

For the molecule `Oc1ccccc1CNCc1ccccc1O`, the GI50 in the test on UACC-62 is > 100 µM (inactive); in the test on OVCAR-4, > 100 µM (inactive); in the test with IGROV-1, > 100 µM (inactive); in the test on KM12 it was > 100 µM (inactive); with NCI-H226, > 100 µM (inactive); with LOX IMVI, 65.2 µM (inactive). Also, the GI50 was > 100 µM (inactive) in the test with T47D; 46.9 µM (inactive) in the test with SK-MEL-5; > 100 µM (inactive) in the test with HT-29; > 100 µM (inactive) in the test on PC-3; > 100 µM (inactive) in the test on SW-620; > 100 µM (inactive) in the test on MCF7. In addition, the GI50 in the test with NCI-H460 was 78.5 µM (inactive); with 786-0 it was > 100 µM (inactive); in the test on MDA-MB-231 it was > 100 µM (inactive); with MDA-N, 39.8 µM (inactive); in the test on SNB-19, > 100 µM (inactive); in the test on Hs-578T it was 39 µM (inactive). In the test with A549, the GI50 was > 100 µM (inactive).

Take `COc1ccc(/C=N/c2ccc(-c3nc4ccccc4s3)cc2)cc1OC`: the GI50 in the test on SR was 27.8 µM (inactive); in the test with UACC-62, 20 µM (inactive); in the test with OVCAR-4, 34.3 µM (inactive); in the test on IGROV-1 it was 25.1 µM (inactive); with KM12, 26.4 µM (inactive); in the test on NCI-H226, 30.1 µM (inactive). In addition, the GI50 in the test on LOX IMVI was 21.8 µM (inactive); in the test with T47D, 17.4 µM (inactive); with SK-MEL-5, 16.1 µM (inactive); with HT-29, 30.7 µM (inactive); with PC-3 it was 22.6 µM (inactive); with SW-620, 34.8 µM (inactive). Moreover, the GI50 with NCI-H460 is 21.8 µM (inactive); in the test on 786-0, 19 µM (inactive); with MDA-N, 30.9 µM (inactive); in the test on SNB-19 it was 54.1 µM (inactive); with Hs-578T, 24.5 µM (inactive); in the test on A549, 36.5 µM (inactive).

For the molecule `O=C(O)CC(NC(=O)CP(=O)(O)O)C(=O)O` (stereo not given), the GI50 with UACC-62 is 79.6 µM (inactive); in the test with OVCAR-4, 2180 µM (inactive); in the test on IGROV-1, 335 µM (inactive); in the test with KM12 it was 149 µM (inactive); in the test with NCI-H226 it was 2280 µM (inactive); with LOX IMVI it was 52.5 µM (inactive). For the same molecule, the GI50 is 1290 µM (inactive) in the test with T47D; 101 µM (inactive) in the test on SK-MEL-5; 185 µM (inactive) in the test with HT-29; 1640 µM (inactive) in the test with PC-3; 285 µM (inactive) in the test with SW-620; 381 µM (inactive) with MCF7. Besides, the GI50 in the test with NCI-H460 was 25.4 µM (inactive); in the test on 786-0, 40 µM (inactive); with MDA-MB-231 it was 1360 µM (inactive); in the test on MDA-N it was 221 µM (inactive); in the test on SNB-19, 103 µM (inactive); in the test on Hs-578T, 3640 µM (inactive). Also, the GI50 with A549 was 47.4 µM (inactive).
